Source: US8765389B2, “Genetic products which are differentially expressed in tumors and use thereof” (Ganymed Pharmaceuticals AG, priority 2003, dated 2014)
d = 2'-deoxy (DNA); r = 2'-OH (RNA)

Columns and labels:
Format in all cases: cell-based, human
TPTE expression = assay: Methylation studies: induceability of TPTE expression by genomic demethylation, real-time RT-PCR; details: 72 h, 2 μM or 10 μM
Method: Real-time RT-PCR analysis of the TPTE expression in the non-expressing cell lines BT549 and HCT116 following treatment of the cells with 2 μM and 10 μM 5-aza-2′-desoxycytidine, respectively, and in HCT116 cells which are deficient for DNA methyltransferase.
For investigating the induceability of TPTE expression by genomic demethylation, TPTE negative cell lines BT549 (Mamma-Ca) and HCT116 (Colon-Ca) were cultivated for 72 h with 2 μM or 10 μM 5-aza-2′-desoxycytidine. Then, the TPTE expression was quantified by means of real-time RT-PCR. Furthermore, TPTE expression was quantified in DNA methyl transferase (DNMT) deficient HCT116 cells. While DNMT1 (HCT116^DNMT1−/−) or DNMT3b (HCT116^ENMT3b−/−) deficient cells show an almost unchanged methylation pattern when compared to the parental cell line (HCT116^Par), cells in which both DNMTs have been simultaneously deleted (HCT116^DKO) are characterized by an almost complete demethylation of genomic DNA.
A quantitative real-time PCR (40 cycles, initial denaturation 15 min 95° C., 30 sec 94° C., 30 sec 62° C. and 30 sec 72° C.) was performed using specific primers (sense […] (SEQ ID NO: 823); antisense […] (SEQ ID NO: 28)) (FIG. 19). […] The ectopic expression of many known CT genes in tumors is induced by promoter demethylation. […]

[1] = system: PC-3 prostate carcinoma cells; assay: Boyden chamber (Transwell) migration assay of PC-3 cells after TPTE-siRNA electroporation
TPTE mRNA = assay: Knock-down of TPTE expression in PC-3 cells using RNAi, real-time RT-PCR; details: PC-3 cells electroporated with 1 μM siRNA, 24 hours later, quantitative real-time RT-PCR
Method: PC-3 cells were electroporated using 1 μM siRNA specific for TPTE. After 24 h mRNA expression was quantified by real-time RT-PCR. Non-electroporated cells and cells electroporated with DsRed siRNA served as controls.
Expression of TPTE, MS4A12, PCSC and BRCO1 was also quantified using real-time PCR, however, the PCR products were detected using SYBR-Green as reporter dye. The reporter fluorescence of SYBR-Green is suppressed in solution and the dye is only active following binding to double-stranded DNA fragments. The increase of SYBR-Green fluorescence due to the specific amplification by means of GOI-specific primers following each PCR cycle is used for quantification. Quantification of expression of the target gene is performed absolute or relative to the expression of a control gene with constant expression in the tissues to be studied. LDHC expression was calculated by means of the ΔΔ-CT method (PE Biosystems, USA), after normalizing the samples to 18s RNA as “house-keeping” gene. The reactions were carried out in duplex mixtures and determined in triplicate. The QuantiTect SYBR-Green PCR kit (Qiagen, Hilden) was used according to the manufacturer's instructions. cDNA was synthesized using the High Capacity cDNA Archive Kit (PE Biosystems, USA) and hexamer primers according to the manufacturer's information. […]

Molecule	induction of TPTE expression (TPTE expression; BT549 (Mamma-Ca) cells)	induction of TPTE expression (TPTE expression; HCT116 (Colon-Ca) cells)	cell migration in the Boyden chamber assay ([1]; 48 h after electroporation with 1 μM TPTE-siRNA)	reduction of the migration rate ([1]; Transwell migration assay, compared to untreated cells and cells electroporated with irrelevant siRNA) [%]	decrease in TPTE expression (TPTE mRNA) [%]
Nc1ncn([C@H]2C[C@H](O)[C@@H](CO)O2)c(=O)n1 [5-aza-2′-desoxycytidine]	strong induction of TPTE expression	strong induction of TPTE expression	–	–	–
TPTE-siRNA: siRNA duplex (SEQ ID NO: 826/827) targeting nucleotides 2043-2061 of the TPTE mRNA sequence (NM_013315) (chain 1 CCCUGCCACAUGUUCAUAUTT; chain 2 AUAUGAACAUGUGGCAGGGTT; sugars from the 5' end r19 d2, backbone not given here)	–	–	Relevant decrease of cell migration	70	70
